Measurements as given in patent US8765695B2, “Use of ginsenoside RG1, its metabolites ginsenoside RH1 and/or PPT” (priority 2007, dated 2014).
Marks after values point to notes of the source that are not given here.

Tests used:
PDE5 = PDE5 (Homo sapiens, UniProt O76074); test: Inhibition effect on PDE5 (cGMP degradation, radioimmune autograph technique); type: biochemical; conditions: read-out: Inhibition rate on PDE5
male mice = test: Test of sexual ethology: bestriding time and mating frequency of male mice with estral female mice; type: in vivo, Kunming mice
Method: Kunming male mice (age 10 weeks, weight body 32-36 g), Kunming female mice (age 10 weeks, weight body 30-34 g), as purchased from Laboratory Animal Center of Chinese Academy of Medical Sciences (with the number of certificate SCXK (Jing) 2005-0004), were placed in a clean grade animal house alternately in light and in darkness (12 h:12 h), while taking water and food freely. The test started after the mice had adapted to the environment in the animal house for 5 days. During the period of adapting to the environment, male mice and female mice were isolated from each other.
In order to correctly reflect the change of male mice in sexual function, we prepared estral female mice by ectomizing their ovaries and inducing them by application of external hormone. After anesthetized with chloral hydrate, female mice were subjected to the steps of ectomizing bilateral ovaries by dorsal approach, ligating uterine tube residue end, and suturing skin, followed by recuperating for one week. The induction by application of hormone was conducted by reference to the literature (Masayoshi Nomura, et al, Physiology & Behavior 91 (2007) 223-228), comprising the steps of subcutaneously injecting estradiol benzoate (30 μg per mouse, is) at 48 h prior to use, and subcutaneously injecting progesterone (500 μg per mouse, is) at 4 h prior to use, to thereby obtain estral female mice.
Estral female mice were put in a ratio of 2:1 to male mice inside a mating box in which male mice were placed. They were trained for consecutive 5 days, 12 min each day. When the mating reaction of male mice became stable, the mice were grouped with the consideration that the bestriding time in each group of mice was substantially the same, while discarding the mice that had relatively weak reaction and no reaction.
In darkness, ethological test was carried out in the rearing cage of male mice. Estral female mice and male mice were kept in a ratio of 2:1 inside the same box for 12 min, during which period the bestriding time and mating frequency of the male mice were observed.
All of the values were expressed by using mean value and standard error (M±SEM), the analytic method used was one-way analysis of variance (ANOVA), and the statistic results were expressed by double star method, i.e., *<0.05, **<0.01.

[1] = test system: sperms in tail of epididymis; test: Gossypol aspermatogenesis model: quality of sperms from tail of epididymis by CASA; type: in vivo,  male mice; conditions: 14th day
[2] = 5 mg/kg, 1st day, 12 min observation
[3] = 10 mg/kg, 1st day, 12 min observation
[4] = 5 mg/kg every day + gossypol 50 mg/kg every other day
[5] = 10 mg/kg every day + gossypol 50 mg/kg every other day

CCCc1nn(C)c2c(=O)[nH]c(-c3cc(S(=O)(=O)N4CCN(C)CC4)ccc3OCC)nc12 [Sildenafil, reference compound]
inhibition at 0.0025 µM (PDE5): 71.6% | inhibition at 0.005 µM (PDE5): 14.6% | inhibition at 0.01 µM (PDE5): 52.6% | inhibition at 0.02 µM (PDE5): 83.3% | inhibition at 0.04 µM (PDE5): 100%

CC(C)=CCC[C@](C)(O)[C@H]1CC[C@]2(C)[C@@H]1[C@H](O)C[C@@H]1[C@@]3(C)CC[C@H](O)C(C)(C)[C@@H]3[C@@H](O)C[C@]12C [Ppt]
bestriding time of mice (male mice; 5 mg/kg, 1st day): 3.3 ± 2.3 min | mating frequency of mice (male mice; [2]): 11.4 ± 6.8 | bestriding time of mice (male mice; 5 mg/kg, 4th day): 3.9 ± 4.2 min | mating frequency of mice (male mice; 5 mg/kg, 4th day): 15.4 ± 8.2 | bestriding time of mice (male mice; 5 mg/kg, 8th day): 4.5 ± 3.8 min | mating frequency of mice (male mice; 5 mg/kg, 8th day): 27.4 ± 8.7 | bestriding time of mice (male mice; 5 mg/kg, 12th day): 6.8 ± 3.3 min | mating frequency of mice (male mice; 5 mg/kg, 12th day): 28.2 ± 9.3 | bestriding time of mice (male mice; 5 mg/kg, 14th day): 7.9 ± 4.4 min | mating frequency of mice (male mice; 5 mg/kg, 14th day): 29.5 ± 7.7 | bestriding time of mice (male mice; 5 mg/kg, 16th day): 8.3 ± 3.1* min | mating frequency of mice (male mice; 5 mg/kg, 16th day): 33.5 ± 10.4 | bestriding time of mice (male mice; 5 mg/kg, 18th day): 9.2 ± 3.8* min | mating frequency of mice (male mice; 5 mg/kg, 18th day): 39.2 ± 8.6* | bestriding time of mice (male mice; 5 mg/kg, 20th day): 9.1 ± 3.5* min | mating frequency of mice (male mice; 5 mg/kg, 20th day): 41.7 ± 7.4* | bestriding time of mice (male mice; 10 mg/kg, 1st day): 2.9 ± 3.4 min | mating frequency of mice (male mice; [3]): 13.4 ± 6.3 | bestriding time of mice (male mice; 10 mg/kg, 4th day): 3.3 ± 4.1 min | mating frequency of mice (male mice; 10 mg/kg, 4th day): 15.4 ± 8.4 | bestriding time of mice (male mice; 10 mg/kg, 8th day): 5.1 ± 3.8 min | mating frequency of mice (male mice; 10 mg/kg, 8th day): 22.8 ± 9.6 | bestriding time of mice (male mice; 10 mg/kg, 12th day): 7.2 ± 3.3 min | mating frequency of mice (male mice; 10 mg/kg, 12th day): 31.6 ± 8.4 | bestriding time of mice (male mice; 10 mg/kg, 14th day): 8.4 ± 4.2 min | mating frequency of mice (male mice; 10 mg/kg, 14th day): 33.7 ± 8.5 | bestriding time of mice (male mice; 10 mg/kg, 16th day): 9.4 ± 3.9* min | mating frequency of mice (male mice; 10 mg/kg, 16th day): 35.3 ± 9.3 | bestriding time of mice (male mice; 10 mg/kg, 18th day): 9.4 ± 3.9* min | mating frequency of mice (male mice; 10 mg/kg, 18th day): 37.2 ± 8.3* | bestriding time of mice (male mice; 10 mg/kg, 20th day): 9.4 ± 3.1* min | mating frequency of mice (male mice; 10 mg/kg, 20th day): 40.2 ± 7.3* | Number of sperms [1, 4]: 141 ± 18** 10^6 · ml−1 | Motility of sperms (A + B) ([1]; 5 mg/kg every day + gossypol): 38 ± 11 % | Viability rate of sperms ([1]; 5 mg/kg every day + gossypol): 55 ± 9 % | Number of sperms [1, 5]: 178 ± 54** 10^6 · ml−1 | Motility of sperms (A + B) ([1]; 10 mg/kg every day + gossypol): 39 ± 9 % | Viability rate of sperms ([1]; 10 mg/kg every day + gossypol): 56 ± 7 %

CC(C)=CCC[C@](C)(O)[C@H]1CC[C@]2(C)[C@@H]1[C@H](O)C[C@@H]1[C@@]3(C)CC[C@H](O)C(C)(C)[C@@H]3[C@@H](O[C@@H]3O[C@H](CO)[C@@H](O)[C@H](O)[C@H]3O)C[C@]12C [Rh1, ginsenoside Rh1]
bestriding time of mice (male mice; 5 mg/kg, 1st day): 2.8 ± 3.2 min | mating frequency of mice (male mice; [2]): 11.3 ± 4.9 | bestriding time of mice (male mice; 5 mg/kg, 4th day): 3.5 ± 4.1 min | mating frequency of mice (male mice; 5 mg/kg, 4th day): 13.9 ± 3.3 | bestriding time of mice (male mice; 5 mg/kg, 8th day): 4.1 ± 3.5 min | mating frequency of mice (male mice; 5 mg/kg, 8th day): 23.5 ± 5.7 | bestriding time of mice (male mice; 5 mg/kg, 12th day): 6.2 ± 2.9 min | mating frequency of mice (male mice; 5 mg/kg, 12th day): 29.4 ± 4.8 | bestriding time of mice (male mice; 5 mg/kg, 14th day): 8.6 ± 5.2 min | mating frequency of mice (male mice; 5 mg/kg, 14th day): 33.6 ± 6.1 | bestriding time of mice (male mice; 5 mg/kg, 16th day): 8.7 ± 4.2* min | mating frequency of mice (male mice; 5 mg/kg, 16th day): 32.2 ± 5.3 | bestriding time of mice (male mice; 5 mg/kg, 18th day): 8.9 ± 3.3* min | mating frequency of mice (male mice; 5 mg/kg, 18th day): 39.8 ± 9.3* | bestriding time of mice (male mice; 5 mg/kg, 20th day): 9.2 ± 3.4* min | mating frequency of mice (male mice; 5 mg/kg, 20th day): 38.1 ± 8.5* | bestriding time of mice (male mice; 10 mg/kg, 1st day): 3.6 ± 2.7 min | mating frequency of mice (male mice; [3]): 9.7 ± 5.6 | bestriding time of mice (male mice; 10 mg/kg, 4th day): 3.9 ± 3.8 min | mating frequency of mice (male mice; 10 mg/kg, 4th day): 14.3 ± 9.5 | bestriding time of mice (male mice; 10 mg/kg, 8th day): 4.0 ± 3.5 min | mating frequency of mice (male mice; 10 mg/kg, 8th day): 25.7 ± 8.6 | bestriding time of mice (male mice; 10 mg/kg, 12th day): 6.3 ± 2.6 min | mating frequency of mice (male mice; 10 mg/kg, 12th day): 28.4 ± 10.5 | bestriding time of mice (male mice; 10 mg/kg, 14th day): 8.4 ± 3.1 min | mating frequency of mice (male mice; 10 mg/kg, 14th day): 32.2 ± 9.3 | bestriding time of mice (male mice; 10 mg/kg, 16th day): 8.9 ± 3.7* min | mating frequency of mice (male mice; 10 mg/kg, 16th day): 34.1 ± 8.2 | bestriding time of mice (male mice; 10 mg/kg, 18th day): 9.1 ± 3.8* min | mating frequency of mice (male mice; 10 mg/kg, 18th day): 36.4 ± 6.7* | bestriding time of mice (male mice; 10 mg/kg, 20th day): 9.3 ± 3.8* min | mating frequency of mice (male mice; 10 mg/kg, 20th day): 43.4 ± 7.3* | Number of sperms [1, 4]: 142 ± 24** 10^6 · ml−1 | Motility of sperms (A + B) ([1]; 5 mg/kg every day + gossypol): 39 ± 8 % | Viability rate of sperms ([1]; 5 mg/kg every day + gossypol): 56 ± 10 % | Number of sperms [1, 5]: 143 ± 16** 10^6 · ml−1 | Motility of sperms (A + B) ([1]; 10 mg/kg every day + gossypol): 39 ± 6 % | Viability rate of sperms ([1]; 10 mg/kg every day + gossypol): 52 ± 5 %
